Measured values taken from PMC7386655, “Spontaneous mutations that confer resistance to 2-deoxyglucose act through Hxk2 and Snf1 pathways to regulate gene expression and HXT endocytosis” (PLoS Genetics, 2020).

Target: T1, Hxk2 (Saccharomyces cerevisiae, UniProt P04807)
T1 construct: expressed from low-copy plasmid in hxk1Δ hxk2Δ glk1Δ yeast; whole cell extract; probably C-terminal 3xV5 tag
T1 sequence (P04807 2-486): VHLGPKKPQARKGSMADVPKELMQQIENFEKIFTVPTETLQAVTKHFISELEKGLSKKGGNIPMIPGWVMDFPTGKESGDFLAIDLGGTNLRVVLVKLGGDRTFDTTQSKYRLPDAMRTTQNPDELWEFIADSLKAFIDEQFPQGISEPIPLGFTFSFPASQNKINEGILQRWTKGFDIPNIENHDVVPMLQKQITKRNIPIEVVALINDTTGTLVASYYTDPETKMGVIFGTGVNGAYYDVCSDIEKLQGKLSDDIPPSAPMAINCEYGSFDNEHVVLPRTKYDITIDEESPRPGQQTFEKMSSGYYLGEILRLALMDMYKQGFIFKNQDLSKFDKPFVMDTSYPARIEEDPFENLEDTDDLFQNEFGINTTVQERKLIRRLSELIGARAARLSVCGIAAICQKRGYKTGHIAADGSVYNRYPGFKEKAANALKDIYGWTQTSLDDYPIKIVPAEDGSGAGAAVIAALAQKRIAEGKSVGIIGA
Test: G6PDH-coupled NADPH absorbance at […] nm, double reciprocal plot
Format: biochemical
Details: read-out: Km Glucose; 1 mM ATP, 10 mM MgCl2, pH 7.4; whole cell extract

In the case of `OC[C@H]1OC(O)[C@H](O)[C@@H](O)[C@@H]1O` (stereo partly shown) [glucose], the Km is reported as 190 µM.
